The test system of series [1] is Human breast cancer cells MCF-7. Nature of the series: MCF-7 cell proliferation experiment. Particulars: MCF-7 cells, 72 hours, Cell Titer-Glo. The format is cell-based. As for the experimental part: Test Example 2: MCF-7 Cell Proliferation Experiment
Human breast cancer cells MCF-7 (HTB-22, purchased from ATCC) were inoculated into a 96-well plate. The culture medium was an MEM (Hyclone, SH30024.01B) culture medium containing 10% of FBS (Gibco, 10099-141), 1% of pyruvic acid (Sigma, S8636), and 1% of nonessential amino acid (Sigma, M7145), and the inoculation density was 4,000 cells/well. The cells were cultured at 37° C., 5% CO2. The compound was prepared into a 20 mM stock solution, which was subjected to gradient dilution to a final concentration of […] with 100% DMSO (Sigma, D2650) and then diluted 20 folds with a culture medium containing 2% of FBS. After 24 hours of culture, the culture medium was removed, 90 μL of a culture medium containing 2% of FBS and 10 μL of drug were added to each well, while 10 μL of DMSO was added to the control group, and they were gently shaken and mixed. The blank group only contained 100 μL of 2% FBS culture medium. They were placed in an incubator and cultured at 37° C., 5% CO2. After 72 hours, 50 μL of mixed Cell Titer-Glo (Promega, G7571) was added. They were shaken and mixed uniformly, and placed at room temperature for 10 min. The chemiluminescence signal value was determined. The negative control was 0.5% DMSO well.

Another series addresses ERα (Homo sapiens (Human), UniProt P03372). Nature of the series: Degradation effect of compound on ERα (ERα DuoSet IC ELISA in MCF-7 cells). The series is classed as cell-based. The note with it: 24 h with compound; for DC50: read-out: IC50 value of ERα degradation by compound. On the procedure: In this test example, ERα DuoSet IC ELISA Kit (R&D, DYC5715) was used to detect the degradation effect of the compound on ERα. On the first day of the experiment, human breast cancer cells MCF-7 (the source was as above) were inoculated into a 24-well plate. The culture medium was an MEM culture medium containing 10% of activated-carbon-treated FBS (Tocyto, UT61204), 1% of pyruvic acid and 1% of nonessential amino acid. The inoculation density was 150,000 cells/well. The cells were cultured at 37° C., 5% CO2 for 24 h.
On the second day of the experiment, the compound to be tested was diluted in gradient and added to a 24-well plate containing cells. The cells were cultured for 24 h at 37° C., 5% CO2. ERα capture antibody was diluted to 1 μg/ml with PBS (Corning, 21-040-CVR) and added to a 96-well plate at 100 μL/well, and the plate was […] coated overnight at room temperature.
On the third day of the experiment, the coated 96-well plate was washed three times with PBS, 300 μL of a blocking solution (R&D, DY995) was added to each well, and the plate was blocked at room temperature for 1 h. The 24-well plate was washed once with PBS, and the residual liquid was sucked off. […] The diluted cell lysate was taken and added to the blocked 96-well plate, with 100 μL per well, and incubated at room temperature for 2 h. The plate was washed three times with a washing solution (R&D, WA126), and a primary antibody was then added. After incubation for 1 h, the 96-well plate was washed four times, a secondary antibody was added, and incubation was carried out at room temperature in the dark for 30 min. The plate was washed four times with the washing solution, and TMB (R&D, DY999) was added. After 15 minutes of development, the reaction was terminated with a stop solution (R&D, DY994), and the light absorption at 450 nm was read.

A short description of series [2]: Stability in human liver microsomes in vitro. Particulars: for microsomal CLint: read-out: CLint(mic). The format is in vitro ADME. On the procedure:
Test Example 4: Test for Stability in Human Liver Microsomes In Vitro Eight 96-well incubation plates were prepared and named [NT], Blank60 and NCF60, respectively. […] No test compound or control compound was added to Blank60 plate, and samples were taken after incubation for 60 min. NCF60 plate was incubated with a potassium phosphate buffer instead of an NADPH regeneration system solution (Sigma, N0505) for 60 min. […] Only the microsome working solution was added to Blank60 plate, and the incubation plates Blank60, T5, T15, T30, T45 and T60 except T0 and NCF60 were then placed in a water bath at 37° C. and pre-incubated for about 10 min. To the samples of T0 plate, 600 μL of a stop solution (acetonitrile:methanol (95:5, v/v) solution containing 100 ng/mL of tolbutamide (Sigma, T0891)) was added first, and the NADPH regeneration system working solution was then added. 98 μL of a potassium phosphate buffer was added to each well of NCF60 plate and incubated for 60 min. After the pre-incubation in the incubation plates Blank60, T5, T15, T30, T45 and T60 was completed, 98 μL of the NADPH regeneration system working solution was added to each sample well to initiate the reaction. After an appropriate incubation time (such as 5, 15, 30, 45 and 60 min), 600 μL of a stop solution was added to each sample well and the control sample well in Blank60, […] the reaction. All the sample plates were shaken uniformly and centrifuged at 3220×g for 20 min. 200 μL of test sample supernatant was separately taken and diluted in 200 μL of an aqueous solution containing 0.3% formic acid for LC-MS/MS analysis, and 100 μL of control sample supernatant was taken and diluted in 300 μL of pure water for LC-MS/MS analysis. Calculation was performed according to the following formula: [formula] [formula] [formula] [formula] [formula] [formula]
Background: Microsomes from liver hold many membrane-bound enzymes, among them those of drug oxidation.

The mark [3] stands for this setting: human liver microsomes, microsome protein 1 mg/mL working solution, NADPH.
Setting [4] is: human liver microsomes, scaled to liver.

We go through 15 compounds from patent US20240217988A1, “ESTROGEN RECEPTOR ANTAGONIST” (Shenzhen Forward Pharmaceuticals Co., Limited, priority 2021, published 2024).

Chain of ERα (P03372 whole entry): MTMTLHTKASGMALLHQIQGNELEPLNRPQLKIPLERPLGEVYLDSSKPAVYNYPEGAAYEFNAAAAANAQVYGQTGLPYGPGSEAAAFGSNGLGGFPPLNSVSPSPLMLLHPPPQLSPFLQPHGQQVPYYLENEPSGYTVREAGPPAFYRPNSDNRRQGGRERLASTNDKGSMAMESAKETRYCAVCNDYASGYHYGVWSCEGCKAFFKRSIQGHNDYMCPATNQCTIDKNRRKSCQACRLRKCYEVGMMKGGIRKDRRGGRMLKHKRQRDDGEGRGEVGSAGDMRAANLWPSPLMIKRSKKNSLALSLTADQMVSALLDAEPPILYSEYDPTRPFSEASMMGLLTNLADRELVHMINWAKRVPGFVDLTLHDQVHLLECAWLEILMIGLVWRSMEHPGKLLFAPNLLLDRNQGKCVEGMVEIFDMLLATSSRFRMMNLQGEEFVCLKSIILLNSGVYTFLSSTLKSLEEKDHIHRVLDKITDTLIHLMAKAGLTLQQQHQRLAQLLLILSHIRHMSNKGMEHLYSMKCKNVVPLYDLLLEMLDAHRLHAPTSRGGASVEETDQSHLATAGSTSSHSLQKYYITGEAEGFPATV

Consider `C[C@@H]1Cc2c(ccc3[nH]c(=O)oc23)[C@@H](c2ccc(OCCCN3CCN(CCNc4cccc5c4CN(C4CCC(=O)NC4=O)C5=O)CC3)cn2)N1CC(F)(F)F` (stereo partly drawn) [Example 43, 3-(4-((2-(4-(3-((6-((6S,8R)-8-methyl-2-oxo-7-(2,2,2-trifluoroethyl)-2,3,6,7,8,9-hexahydrooxazolo[5,4-f]isoquinolin-6-yl)pyridin-3-yl)oxy)propyl)piperazin-1-yl)ethyl)amino)-1-oxoisoindolin-2-yl)piperidine-2,6-dione], for which, in series [1] (Homo sapiens, MCF7), the concentration for half-maximal inhibition (IC50) – broadly, the midpoint of a concentration-inhibition curve – was found to be 0.69 nM. In addition, the DC50 on ERα was found to be 0.63 nM.
Turning to `C[C@@H]1Cc2c(ccc3[nH]c(=O)oc23)[C@@H](c2ccc(NC3CN(CCCF)C3)cn2)N1CC(F)(F)F` [Example 5, (6S,8R)-6-(5-((1-(3-fluoropropane)azetidin-3-yl)amino)pyridin-2-yl)-8-methyl-7-(2,2,2-trifluoroethyl)-6,7,8,9-tetrahydrooxazolo[5,4-f]isoquinolin-2(3H)-one], in series [2] (setting [3]), the half-life (in general, the time needed for the level to fall by half in the phase considered) was determined as 1.26 h. Moreover, in series [2] (setting [4]), the intrinsic clearance (CLint scaled) – broadly, the capacity of the preparation to metabolise the compound, expressed as a volume cleared per time – came out at 16.5 mL/min/kg. The microsomal CLint in series [2] (human liver microsomes) is 18.4 µL/min/mg.
In the same order, the values of `C[C@@H]1Cc2c(ccc3[nH]c(=O)oc23)[C@@H](c2c(F)cc(N3CC4(CN(CCF)C4)C3)cc2F)N1CC(F)(F)F` [Example 8, (6S,8R)-6-(2,6-difluoro-4-(6-(2-fluoroethyl)-2,6-diazspiro[3.3]hept-2-yl)phenyl)-8-methyl-7-(2,2,2-trifluoroethyl)-6,7,8,9-tetrahydrooxazolo[5,4-f]isoquinolin-2(3H)-one] are 1.43 h, 14.5 mL/min/kg and 16.1 µL/min/mg.
Compound `C[C@@H]1Cc2c(ccc3[nH]c(=O)oc23)[C@@H](c2ncc(NC3CN(CCCF)C3)cc2F)N1CC(F)(F)F` [Example 27, (6S,8R)-6-(3-fluoro-5-((1-(3-fluoropropyl)azetidin-3-yl)amino)pyridin-2-yl)-8-methyl-7-(2,2,2-trifluoromethyl)-6,7,8,9-tetrahydroxazolo[5,4-f]isoquinolin-2(3H)-one] showed a 50% inhibitory concentration (IC50) in series [1] (Homo sapiens, MCF7) of 1.63 nM.
`C[C@@H]1Cc2c(ccc3[nH]c(=O)oc23)[C@@H](c2c(F)cc(O[C@@H]3CCN(C/C=C/C(=O)N(C)C)C3)cc2F)N1CC(F)(F)F` [Example 37] displayed an IC50 in series [1] (Homo sapiens, MCF7) of 0.61 nM.
Regarding `C[C@@H]1Cc2c([nH]c3ccccc23)[C@@H](c2c(F)cc(/C=C/C(=O)O)cc2F)N1CC(C)(C)F` [AZD9496, reference compound], the IC50 in series [1] (Homo sapiens, MCF7) worked out at 3.84 nM.
`C[C@@H]1Cc2c(ccc3[nH]ncc23)[C@@H](c2ccc(NC3CN(CCCF)C3)cn2)N1CC(F)(F)F` [AZD9833, reference compound] displayed an IC50 in series [1] (Homo sapiens, MCF7) of 2.45 nM. The compound further returned a half-life in series [2] (setting [3]) of 1.33 h. For the same compound, the CLint scaled in series [2] (setting [4]) is 15.6 mL/min/kg. In series [2] (human liver microsomes), the microsomal CLint was 17.3 µL/min/mg.
As for `C[C@@H]1Cc2c(ccc3[nH]c(=O)oc23)[C@@H](c2c(F)cc(OCCNC/C=C/C(=O)N(C)C)cc2F)N1CC(F)(F)F` [Example 16, (E)-4-((2-(3,5-difluoro-4-((6S,8R)-8-methyl-2-oxy-7-(2,2,2-trifluoroethyl)-2,3,6,7,8,9-hexahydrooxazolo[5,4-f]isoquinolin-6-yl)phenoxy)ethyl)amino)-N,N-dimethylbut-2-enamide], half-maximal inhibition in series [1] (Homo sapiens, MCF7) (IC50) required 0.8 nM.
In series [1], “(E)-4-((S)-3-((3,5-difluoro4-((6S,8R)-8-methyl-2-oxo-7-(2,2,2-trifluoroethyl)-2,3,6,7, 8,9-hexahydrooxazolo[5,4-f]isoquinolin-6-yl)phenoxy)pyrrolidin-1-yl)-N,N-dimethylbut-2-enamide [Example 39]” had an IC50 of 0.49 nM.
In series [1] (Homo sapiens, MCF7), `C[C@@H]1Cc2c(ccc3[nH]c(=O)oc23)[C@@H](c2ccc(O[C@H]3CCN(CCCF)C3)cn2)N1CC(F)(F)F` [Example 29, (6S,8R)-6-(5-(((S)-1-(3-fluoropropane)pyrrolidin-3-yl)oxy)pyridin-2-yl)-8-methyl-7-(2,2,2-trifluoroethyl)-6,7,8,9-tetrahydrooxazolo[5,4-f]isoquinolin-2(3H)-one] gave an IC50 of 0.71 nM.
The same measure, in the same setting: the result for `C[C@@H]1Cc2c(ccc3[nH]c(=O)oc23)[C@@H](c2c(F)cc(NC3CN(C/C=C/C(=O)N(C)C)C3)cc2F)N1CC(F)(F)F` [Example 35, (E)-4-(3-((3,5-difluoro-4-((6S,8R)-8-methyl-2-oxo-7-(2,2,2-trifluoroethyl)-2,3,6,7,8,9-hexahydrooxazolo[5,4-f]isoquinolin-6-yl)phenyl)amino)azetidin-1-yl)-N,N-dimethylbut-2-enamide] reads 0.82 nM.
On to `COc1cc(NC2CN(CCCF)C2)cnc1[C@@H]1c2ccc3[nH]c(=O)oc3c2C[C@@H](C)N1CC(F)(F)F` [Example 28, (6S,8R)-6-(5-((1-(3-fluoropropyl)azetidin-3-yl)amino)-3-methoxypyridin-2-yl)-8-methyl-7-(2,2,2-trifluoroethyl)-6,7,8,9-tetrahydroxazolo[5,4-f]isoquinolin-2(3H)-one], for which, in series [1] (Homo sapiens, MCF7), the IC50 was determined as 0.4 nM.
Consider `C[C@@H]1Cc2c(ccc3[nH]c(=O)oc23)[C@@H](c2c(F)cc(O[C@H]3CCN(CCCF)C3)cc2F)N1CC(F)(F)F` [Example 11], for which 0.38 nM corresponded to half-maximal inhibition in series [1] (Homo sapiens, MCF7) (IC50). The DC50 on ERα is 0.62 nM.
With `C[C@@H]1Cc2c(ccc3[nH]ncc23)[C@@H](c2c(F)cc(OCCN3CC(CF)C3)cc2F)N1CC(C)(C)F` [Comparative Compound 1, (6S,8R)-6-(2,6-difluoro-4-(2-(3-(fluoromethyl)azetidin-1-yl)ethoxy)phenyl)-7-(2-fluoro-2-methylpropyl)-8-methyl-6,7,8,9-tetrahydro-3H-benzopyrazolo[4,3-f]isoquinoline, reference compound], the IC50 worked out at 2.68 nM in series [1] and 1.89 nM at ERα. Further, the “T1/2” value in series [2] (setting [3]) came to 0.703 h. Further, the “CLint(liver)” value in series [2] (setting [4]) is 29.6 mL/min/kg. Besides, the “CLint(mic)” value in series [2] (human, microsomes) worked out at 32.9 µL/min/mg.
Consider `C[C@@H]1Cc2c(ccc3[nH]c(=O)oc23)[C@@H](c2c(F)cc(O[C@H]3CCN(CCCF)C3)cc2F)N1CC(F)(F)CO` [Example 13, (6S,8R)-7-(2,2-difluoro-3-hydroxypropyl)-6-(2,6-difluoro-4-(((S)-1-(3-fluoropropane)pyrrolidin-3-yl)oxy)phenyl)-8-methyl-6,7,8,9-tetrahydrooxazolo[5,4-f]isoquinolin-2(3H)-one], for which it took 0.3 nM to reach half-maximal inhibition in series [1] (Homo sapiens, MCF7) (IC50). The DC50 on ERα turned out to be 0.23 nM.
